Assay results published in paper PMC9785471, “Exploring Cryptococcus neoformans CYP51 and Its Cognate Reductase as a Drug Target” (Journal of Fungi, 2022).

Target: T1, CnCYP51 (lanosterol 14α-demethylase, CnCYP51-6×His) (Cryptococcus neoformans, UniProt J9VHT4)
T1 construct: gene CNAG_00040; full-length, C-terminal hexahistidine-tagged, codon-optimised, expressed in S. cerevisiae
Test: Type II absorbance difference spectral titration of purified CYP51, Hill fit
Assay type: binding

T1 sequence (J9VHT4 entry or part of it): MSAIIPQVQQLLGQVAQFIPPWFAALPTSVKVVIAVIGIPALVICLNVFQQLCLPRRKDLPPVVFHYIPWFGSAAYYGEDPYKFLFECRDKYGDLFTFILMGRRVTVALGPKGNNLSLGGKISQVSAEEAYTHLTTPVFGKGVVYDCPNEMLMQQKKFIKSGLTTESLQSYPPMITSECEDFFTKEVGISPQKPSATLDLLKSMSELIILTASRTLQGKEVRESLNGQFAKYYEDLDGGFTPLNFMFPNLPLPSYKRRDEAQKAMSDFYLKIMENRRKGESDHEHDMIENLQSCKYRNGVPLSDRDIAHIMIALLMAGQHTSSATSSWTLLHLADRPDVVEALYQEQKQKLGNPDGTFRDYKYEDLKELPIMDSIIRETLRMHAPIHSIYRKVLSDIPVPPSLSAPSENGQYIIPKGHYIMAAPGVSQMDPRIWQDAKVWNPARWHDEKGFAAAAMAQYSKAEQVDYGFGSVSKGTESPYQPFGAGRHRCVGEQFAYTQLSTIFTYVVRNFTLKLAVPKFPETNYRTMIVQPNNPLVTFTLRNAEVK

SMILES | Kd [nM]
CC[C@@H]([C@H](C)O)n1ncn(-c2ccc(N3CCN(c4ccc(OC[C@@H]5CO[C@@](Cn6cncn6)(c6ccc(F)cc6F)C5)cc4)CC3)cc2)c1=O [PCZ, Posaconazole] | 200 ± 10
C[C@@H](c1ncncc1F)[C@](O)(Cn1cncn1)c1ccc(F)cc1F [VCZ, Voriconazole] | 390 ± 13
